From US8592454B2, “Nitrogen-containing heterocyclic compound and use of same” (Takeda Pharmaceutical Company Limited, priority 2008, dated 2013)
Where a name gives a salt, the structure may show the parent alone. Read-outs that look alike come from different tables or passages of the source.

Experiments:
Human NK1 Receptor = Human NK1 Receptor (Homo sapiens (Human), UniProt P25103); assay: Human NK1 receptor binding assay: radioligand (125I-Bolton-Hunter-SP) binding inhibitory activity using receptor from human lymphoblast cells (IM-9); conditions: hNK1 receptor binding inhibition
[1] = biological target: Human NK2 (hNK2) receptor (Homo sapiens (Human), UniProt P21452); assay: Human NK2 receptor binding assay: radioligand ([125I]-NK-A) binding inhibitory activity using membrane fraction of CHO cell expressing human NK2 (hNK2) receptor; conditions: hNK2 receptor binding inhibition
Text: Human NK2 Receptor Binding Assay

[2] = biological target: Human NK3 (hNK3) receptor (Homo sapiens (Human), UniProt P29371)
Method: Human NK3 Receptor Binding Assay
CHO cells expressing hNK3 receptor were cultured in a MEMα medium (Nikken Seibutsu Igaku Kenkyusho, K.K.) containing 100 U/mL penicillin, 100 μg/mL streptomycin and 10% inactivated dialyzed serum. The medium was removed, the adhered cells were washed with PBS, and PBS containing 5 mM EDTA was added to detach the cells from the flask. The cells were collected by centrifugation, suspended in suspension buffer A (50 mM Tris-HCl (pH 7.4) containing 120 mM NaCl, 5 mM KCl, 2 μg/mL chymostatin, 40 μg/mL bacitracin, 40 μg/ml APMSF, 1 mM EDTA), disrupted by a Polytron homogenizer (Kinematika), and centrifuged at 800×g for 10 min. The supernatant was recovered and ultracentrifuged at 100,000×g for 25 min. The precipitation fraction was suspended in suspension buffer B (50 mM Tris-HCl (pH 7.4), 0.02% bovine serum albumin, 2 μg/ml chymostatin, 40 μg/ml bacitracin, 40 μg/mL APMSF, 3 mM MnCl2), and cryopreserved (−80° C.) as a receptor reference standard.
Measurement buffer (50 mM Tris-HCl (pH 7.4), 0.02% bovine serum albumin, 2 μg/ml chymostatin, 40 μg/mL bacitracin, 40 μg/mL APMSF, 3 mM MnCl2) (50 μL) was added to a 96-well microassay plate. The membrane reference standard (300 μg/mL) suspended in a measurement buffer was added by 50 μL. […] Furthermore, 400 μM [^125I]-NK-B (Neurokinin-B (N-Me-Phe^7), [^125I]His^3-) (PerkinElmer) solution was added to each well by 50 μL.
After reaction at 25° C. for 30 min, the reaction was quenched using a cell harvester (PerkinElmer) by rapid filtration on a GF/C filter plate, and the cells were washed 5 times with 250 μL of a 50 mM Tris-HCl buffer (pH 7.4) containing 0.02% bovine serum albumin. The GF/C filter plate was dried, MicroScinti-0 (Perkin Elmer) was added by 20 μL, and the radioactivity was measured on a TopCount (PerkinElmer). The GF/C filter plate used had been immersed in 0.3% polyethyleneimine for one day.
The specific binding level is shown by a value obtained by subtracting non-specific binding level from the total binding level. The binding inhibitory activity of the test compound is shown by a ratio of the value obtained by subtracting the measurement value with addition of a test compound from the total binding level, to the value of the specific binding level.

[3] = read-out: IC50 value hNK3, hNK3 receptor binding inhibition

Human NK1 Receptor, sequence (P25103 whole entry): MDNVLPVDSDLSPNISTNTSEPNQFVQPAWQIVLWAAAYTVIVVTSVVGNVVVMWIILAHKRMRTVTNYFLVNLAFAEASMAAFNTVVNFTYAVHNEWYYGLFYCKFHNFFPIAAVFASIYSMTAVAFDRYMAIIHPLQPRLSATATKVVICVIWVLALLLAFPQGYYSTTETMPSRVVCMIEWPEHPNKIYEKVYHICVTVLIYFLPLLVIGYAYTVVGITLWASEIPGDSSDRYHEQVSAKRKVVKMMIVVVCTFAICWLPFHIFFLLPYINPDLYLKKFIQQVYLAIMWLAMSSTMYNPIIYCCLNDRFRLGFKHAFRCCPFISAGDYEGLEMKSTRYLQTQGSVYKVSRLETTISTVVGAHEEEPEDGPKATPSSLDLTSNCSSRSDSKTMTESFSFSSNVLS
Human NK2 (hNK2) receptor, sequence (P21452 whole entry): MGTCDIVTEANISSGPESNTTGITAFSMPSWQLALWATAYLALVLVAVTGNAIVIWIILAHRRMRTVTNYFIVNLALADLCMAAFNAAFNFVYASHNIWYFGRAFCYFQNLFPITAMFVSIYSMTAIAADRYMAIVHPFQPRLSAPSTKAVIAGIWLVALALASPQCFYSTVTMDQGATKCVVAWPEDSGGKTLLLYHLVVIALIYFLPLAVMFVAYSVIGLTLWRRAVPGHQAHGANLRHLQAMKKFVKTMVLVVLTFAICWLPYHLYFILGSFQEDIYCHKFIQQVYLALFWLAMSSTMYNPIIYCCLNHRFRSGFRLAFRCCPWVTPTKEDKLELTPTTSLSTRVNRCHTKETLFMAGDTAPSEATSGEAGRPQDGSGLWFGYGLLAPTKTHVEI
Human NK3 (hNK3) receptor, sequence (P29371 whole entry): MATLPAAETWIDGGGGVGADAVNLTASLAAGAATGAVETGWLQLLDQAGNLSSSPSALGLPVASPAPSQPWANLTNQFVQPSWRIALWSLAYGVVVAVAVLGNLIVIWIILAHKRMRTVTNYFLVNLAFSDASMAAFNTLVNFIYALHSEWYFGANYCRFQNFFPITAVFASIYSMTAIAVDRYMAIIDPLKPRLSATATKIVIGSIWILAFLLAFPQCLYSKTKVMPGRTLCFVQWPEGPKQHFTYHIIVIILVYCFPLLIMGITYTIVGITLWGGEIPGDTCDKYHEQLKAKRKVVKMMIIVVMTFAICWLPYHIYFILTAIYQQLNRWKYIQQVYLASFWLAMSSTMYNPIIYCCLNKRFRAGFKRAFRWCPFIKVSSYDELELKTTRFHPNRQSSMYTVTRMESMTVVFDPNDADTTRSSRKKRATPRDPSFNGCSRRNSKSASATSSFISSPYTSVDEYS

IC50 (Human NK1 Receptor) [nM] | IC50 [1] [nM] | IC50 [2, 3] [nM] | IC50 [2] [nM] | Structure (SMILES)
0.075 | 2 | – | – | CC(=O)N1CCC(C(=O)N2C[C@@H](N(C)C(=O)N(C)c3cc(C(F)(F)F)cc(C(F)(F)F)c3)[C@H](c3ccc(Cl)c(Cl)c3)C2)CC1 (racemic) [Example 66, 1-[(3S*, 4R*)-1-[(1-acetylpiperidin-4-yl)carbonyl]-4-(3,4-dichlorophenyl)pyrrolidin-3-yl]-3-[3,5-bis(trifluoromethyl)phenyl]-1,3-dimethylurea]
0.11 | 4200 | – | – | CC(=O)N1CCC(C(=O)N2CC[C@@H](N(C)C(=O)N(C)c3cc(C(F)(F)F)cc(C(F)(F)F)c3)[C@H](c3ccc(F)cc3)C2)CC1 (relative stereo) [Example 4, 1-[(3R*,4R*)-1-[(1-acetylpiperidin-4-yl)carbonyl]-3-(4-fluorophenyl)piperidin-4-yl]-3-[3,5-bis(trifluoromethyl)phenyl]-1,3-dimethylurea]
0.031 | 7.1 | 1400 | – | CC(=O)N1CCC(C(=O)N2CC[C@@H](N(C)C(=O)N(C)c3cc(C(F)(F)F)cc(C(F)(F)F)c3)[C@H](c3ccc(Cl)c(Cl)c3)C2)CC1 [Example 25, 1-[(3R,4R)-1-[(1-acetylpiperidin-4-yl)carbonyl]-3-(3,4-dichlorophenyl)piperidin-4-yl]-3-[3,5-bis(trifluoromethyl)phenyl]-1,3-dimethylurea]
290 | > 100 | 99 | – | CC(=O)N1CCC(C(=O)N2CC[C@@H](N(C)C(=O)Nc3ccc(Cl)cc3)[C@H](c3ccc(Cl)c(Cl)c3)C2)CC1 [Example 61, 1-[(3R,4R)-1-[(1-acetylpiperidin-4-yl)carbonyl]-3-(3,4-dichlorophenyl)piperidin-4-yl]-3-(4-chlorophenyl)-1-methylurea]
0.027 | 7.1 | – | – | CC(=O)N1CCC(C(=O)N2C[C@@H](N(C)C(=O)N(C)c3cc(C(F)(F)F)cc(C(F)(F)F)c3)[C@H](c3ccc(F)cc3)C2)CC1 [Example 71b]
0.073 | 100 | – | – | CN(C(=O)N(C)[C@@H]1CCN(C2CCS(=O)(=O)CC2)C[C@H]1c1ccc(F)cc1)c1cc(C(F)(F)F)cc(C(F)(F)F)c1 [Example 104, 1-[3,5-bis(trifluoromethyl)phenyl]-3-[(3R,4R)-1-(1,1-dioxidetetrahydro-2H-thiopyran-4-yl)-3-(4-fluorophenyl)piperidin-4-yl]-1,3-dimethylurea monohydrochloride]
0.029 | 12 | 600 | – | CC(=O)N1CCC(C(=O)N2C[C@@H](N(C)C(=O)N(C)c3cc(Cl)cc(Cl)c3)[C@H](c3ccc(F)cc3)C2)CC1 [Example 176, 1-[(3S,4R)-1-[(1-acetylpiperidin-4-yl)carbonyl]-4-(4-fluorophenyl)pyrrolidin-3-yl]-3-(3,5-dichlorophenyl)-1,3-dimethylurea]
0.032 | 120 | – | 4400 | CC(=O)N1CCC(C(=O)N2C[C@@H](N(C)C(=O)N(C)c3cc(C(F)(F)F)cc(C(F)(F)F)c3)[C@H](c3ccc(F)cn3)C2)CC1 [Example 192, 1-[(3S,4R)-1-[(1-acetylpiperidin-4-yl)carbonyl]-4-(5-fluoropyridin-2-yl)pyrrolidin-3-yl]-3-[3,5-bis(trifluoromethyl)phenyl]-1,3-dimethylurea]
0.049 | 42 | 1100 | – | COC(=O)N[C@H]1CC[C@H](C(=O)N2C[C@@H](N(C)C(=O)N(C)c3cc(C(F)(F)F)cc(C(F)(F)F)c3)[C@H](c3ccc(F)cc3)C2)CC1 [Example 233, methyl (trans-4-{[(3S,4R)-3-[{[3,5-bis(trifluoromethyl)phenyl](methyl)carbamoyl}(methyl)amino]-4-(4-fluorophenyl)pyrrolidin-1-yl]carbonyl}cyclohexyl)carbamate]
0.07 | 2.4 | – | – | CN(C(=O)N(C)[C@@H]1CN(C(=O)C2CCN(C(=O)C(C)(C)O)CC2)C[C@H]1c1ccc(F)cc1)c1cc(C(F)(F)F)cc(C(F)(F)F)c1 [Example 308, 1-[3,5-bis(trifluoromethyl)phenyl]-3-[(3S,4R)-4-(4-fluorophenyl)-1-{[1-(2-hydroxy-2-methylpropanoyl)piperidin-4-yl]carbonyl}pyrrolidin-3-yl]-1,3-dimethylurea]
0.039 | 59 | 650 | – | CN(C(=O)N(C)[C@@H]1CN(C(=O)NC2CCOCC2)C[C@H]1c1ccc(F)cc1)c1cc(C(F)(F)F)cc(C(F)(F)F)c1 [Example 378, (3S,4R)-3-[{[3,5-bis(trifluoromethyl)phenyl](methyl)carbamoyl}(methyl)amino]-4-(4-fluorophenyl)-N-(tetrahydro-2H-pyran-4-yl)pyrrolidine-1-carboxamide]
0.03 | 77 | – | 120 | CN(C(=O)N(C)[C@@H]1CN(C(=O)N2CCN(S(C)(=O)=O)CC2)C[C@H]1c1ccc(F)cc1)c1cc(Cl)cc(Cl)c1 [Example 420, 1-(3,5-dichlorophenyl)-3-[(3S,4R)-4-(4-fluorophenyl)-1-{[4-(methylsulfonyl)piperazin-1-yl]carbonyl}pyrrolidin-3-yl]-1,3-dimethylurea]
